Source: PubChem BioAssay AID1259407 (Chemical Carcinogenesis Research Information System (CCRIS), 2018)
Activity calls are given as the source filed them. The rule behind the calls is not given here.

Tested on: CCRIS mutagenicity, Ames/micronucleus/aberration tests
Test: CCRIS mutagenicity studies
[1] = Test System: AMES SALMONELLA TYPHIMURIUM, Strain/Indicator: TA98, Metabolic Activation: NONE, Method: PREINCUBATION
[2] = Test System: AMES SALMONELLA TYPHIMURIUM, Strain/Indicator: TA100, Metabolic Activation: NONE, Method: PREINCUBATION
[3] = Test System: AMES SALMONELLA TYPHIMURIUM, Strain/Indicator: TA98, Metabolic Activation: NONE, Method: STANDARD PLATE

Measured: mutagenic call

CCCCOCCOP(=O)(OCCOCCCC)OCCOCCCC
inactive: Test System: AMES SALMONELLA TYPHIMURIUM, Strain/Indicator: TA98, Metabolic Activation: HAMSTER, LIVER, S-9, AROCLOR 1254, Method: PREINCUBATION inactive; negative | [1] inactive; negative | Test System: AMES SALMONELLA TYPHIMURIUM, Strain/Indicator: TA98, Metabolic Activation: RAT, LIVER, S-9, AROCLOR 1254, Method: PREINCUBATION inactive; negative | Test System: AMES SALMONELLA TYPHIMURIUM, Strain/Indicator: TA100, Metabolic Activation: HAMSTER, LIVER, S-9, AROCLOR 1254, Method: PREINCUBATION inactive; negative | [2] inactive; negative | Test System: AMES SALMONELLA TYPHIMURIUM, Strain/Indicator: TA100, Metabolic Activation: RAT, LIVER, S-9, AROCLOR 1254, Method: PREINCUBATION inactive; negative | Test System: AMES SALMONELLA TYPHIMURIUM, Strain/Indicator: TA1535, Metabolic Activation: HAMSTER, LIVER, S-9, AROCLOR 1254, Method: PREINCUBATION inactive; negative | Test System: AMES SALMONELLA TYPHIMURIUM, Strain/Indicator: TA1535, Metabolic Activation: NONE, Method: PREINCUBATION inactive; negative | Test System: AMES SALMONELLA TYPHIMURIUM, Strain/Indicator: TA1535, Metabolic Activation: RAT, LIVER, S-9, AROCLOR 1254, Method: PREINCUBATION inactive; negative | Test System: AMES SALMONELLA TYPHIMURIUM, Strain/Indicator: TA1537, Metabolic Activation: HAMSTER, LIVER, S-9, AROCLOR 1254, Method: PREINCUBATION inactive; negative | Test System: AMES SALMONELLA TYPHIMURIUM, Strain/Indicator: TA1537, Metabolic Activation: NONE, Method: PREINCUBATION inactive; negative | Test System: AMES SALMONELLA TYPHIMURIUM, Strain/Indicator: TA1537, Metabolic Activation: RAT, LIVER, S-9, AROCLOR 1254, Method: PREINCUBATION inactive; negative

CC1(C)CC(C(=O)O)C(C)(C)N1[O] (stereo not given)
inactive: [3] inactive; negative | Test System: AMES SALMONELLA TYPHIMURIUM, Strain/Indicator: TA100, Metabolic Activation: NONE, Method: STANDARD PLATE inactive; negative | Test System: AMES SALMONELLA TYPHIMURIUM, Strain/Indicator: TA102, Metabolic Activation: NONE, Method: STANDARD PLATE inactive; negative | Test System: AMES SALMONELLA TYPHIMURIUM, Strain/Indicator: TA102, Metabolic Activation: XANTHINE OXIDASE, Method: STANDARD PLATE inactive; negative | Test System: AMES SALMONELLA TYPHIMURIUM, Strain/Indicator: TA104, Metabolic Activation: NONE, Method: STANDARD PLATE inactive; negative | Test System: AMES SALMONELLA TYPHIMURIUM, Strain/Indicator: TA104, Metabolic Activation: XANTHINE OXIDASE, Method: STANDARD PLATE inactive; negative

CC(=O)Nc1cccc(N)c1C(=O)O
active: Test System: AMES SALMONELLA TYPHIMURIUM, Strain/Indicator: TA98, Metabolic Activation: RAT, LIVER, S-9, PHENOBARBITAL AND 5,6-BENZOFLAVONE, Method: PREINCUBATION active; positive
inactive: [1] inactive; negative | [2] inactive; negative | Test System: AMES SALMONELLA TYPHIMURIUM, Strain/Indicator: TA100, Metabolic Activation: RAT, LIVER, S-9, PHENOBARBITAL AND 5,6-BENZOFLAVONE, Method: PREINCUBATION inactive; negative

Cn1cnc2cc([N+](=O)[O-])ccc21
inactive: [3] inactive; negative

c1ccc2c(c1)-c1c3ccccc3cc3cc4ccccc4c-2c13
active: Test System: HUMAN H1A1V2 CELLS, Strain/Indicator: TK LOCUS, Metabolic Activation: NONE, Method: SUSPENSION/PLATE active; positive

Cc1cc2c(nc(N)n2C)c2ncc(-c3ccccc3)nc12
active: Test System: AMES SALMONELLA TYPHIMURIUM, Strain/Indicator: TA98, Metabolic Activation: RAT, LIVER, S-9, AROCLOR 1254, Method: STANDARD PLATE active; positive
